Each block holds one molecule with its values, some of them ahead of it.
Experiments:
[1] = cited from earlier work
[2] = system: plasmid DNA; test: DNA binding by gel electrophoresis (gel shift assay); conditions: plasmid DNA 4.7 kb, equivalent molar ratios to HEA-quinine copolymer
Procedure: DNA Binding Studies by Gel Electrophoresis. After the 1 hour incubation period, the polyplex solutions of all N/P ratios (10 μL) were each mixed with a 30% glycerol solution in water (2 μL). The solutions were loaded into 0.6% agarose gel containing ethidium bromide (6 μL/100 mL TAE buffer) and run at 60 V for 60 minutes. The gel was visualized under UV transilluminator (λ=366 nm).
The first step in this process is to mix the polymer and pDNA together to form the polyplex. […] Once combined, the solution is left to incubate at room temperature for 1 hour. Polyplexes are formed with varying concentrations of polymer to DNA which are expressed by their N/P ratio. The N/P ratio expresses the molar ratio of cationic amine groups on the polymer (N) over the number of anionic phosphate groups of the DNA backbone (P). […]
Upon a slow addition of an aqueous polymer solution to an aqueous DNA solution (0.02 μg/μL) at a 1:1 v/v ratio, the polymer and DNA self-assemble to form polyplexes. The target concentration of the polymer in the polyplex solution was determined by the target N/P ratio which is the molar ratio of cationic amine groups on the polymer (N) to anionic phosphate groups of the DNA backbone (P). […]

[3] = system: HeLa cells; assay type: cell-based, human
Source text: Transfection with the acrylate copolymer poly(HEA-co-acrylate), however, provided more promising results. […] Transfection studies with the HEA copolymer will continue at higher N/P ratios in hope of achieving transfection efficiency similar to that of PEI while maintaining limited toxicity.

Molecule: C=C(C)C(=O)NCCN [AEMA, N-(2-aminoethyl) methacrylamide]
pKa of basic amine ([1]; basic tertiary amine of chloroquine and quinine, amine of AEMA): 9.3

ability to bind DNA in gel shift assay [2]: inability
Molecule: C=C[C@H]1C[N@@]2CC[C@H]1C[C@H]2[C@H](O)c1ccnc2ccc(OC)cc12 [quinine]
pKa of quinoline nitrogen ([1]; 4-aminoquinoline nitrogen of chloroquine vs quinoline nitrogen of quinine): 5.2

Molecule: poly(HEA-co-quinine) [HEA copolymer]
toxicity (qualitative inspection) [3]: much less toxic
